Test results reported in patent US7988972B2, “Immunoreactive peptides from Epstein-Barr virus” (Ortho-Clinical Diagnostics, Inc., priority 1993, dated 2011).

What was measured:
[1] = system: EA reactive antibody (IgG) in infectious mononucleosis (IM) sera; assay: ELISA, EA peptides with EBV infectious mononucleosis sera; assay type: binding, human; conditions: for ELISA result, peptides with and without extensions: EA positive EBV IM acute serum; for O.D.: 420 nm
Experimental: ELISA. The ELISA for measuring specific antibodies to p17, p50 or to the synthetic peptides was performed as previously described in detail (Luka et al., J. Immunol. Methods, 67:145-156, 1984). Aliquots of different antigen concentrations were diluted in 0.5M Na2CO3 buffer, pH 9.5, added to wells in polystyrene microtiter plates (Linbro) and the plates incubated overnight at 4° C. Following this incubation period, the plates were washed 5× with Tris-HCl, pH 7.4, containing 0.05% Tween 20, 50 mM NaCl and 100 mg per liter albumin (Sigma) and dried for 20 minutes at room temperature. The plates were screened with different anti-EA-R or EA-D antibody positive human sera and the monoclonal antibody to p17 or p50 to identify the optimal concentration of antigen to be used in the serological studies. Alkaline-phosphatase-labelled goat anti-human IgG (Sigma) or goat anti-mouse IgG (Sigma) was used as the indicator system.
For the testing of human sera for antibodies to native p17, p50 or to the synthetic peptides, sera were diluted 1:10 in ELISA buffer, added in 0.1 ml volumes to wells coated with optimal concentrations of antigen and the plates were incubated for 60 minutes at room temperature. After 4 washes with ELISA buffer, 100 μl of alkaline phosphatase-labelled goat anti-human IgG in ELISA buffer were added to each well and the plates were incubated at room temperature for 1 hour. Following four more washes in buffer, the enzyme reaction was performed by dissolving 1 mg per ml of Sigma alkaline phosphatase substrate in 1M diethanolamine buffer, pH 10.4, containing 1 mM MgCl2 and 0.1 mM ZnCl2, and 100 μl of the mixture was then added to each well. The reaction was allowed to proceed for 30 minutes at 37° C. and then the plates were screened directly with a microplate reader, TITERTEK MULTISKAN MC (Flow), at 420 nm. Readings above 0.1 which was 2× the background noted with antibody-negative sera were considered positive reactions.
When the entire 50.10 peptide was tested with 1M sera, 24/32 or 75% of the sera contained EA-D reactive antibody (IgG) (Table 4).
Serological reactivity of EA peptides p17.1 and p50.1 which contained additional amino acids on their amino and carboxy termini was tested on EBV IM acute sera which was EA positive. The ELISA results shown in Table 5 indicate that the additional amino acids improved reactivity for both EA peptides.
Immunofluorescence assays (IFA) were performed as described by Henle, et al. (Int. J. Cancer, 8:272-282, 1971). Western blot analysis was done by methods commonly used in the art (See for example, Coligan, et al., Current Protocols in Immunology, Wiley Interscience, 1991, Unit 12). Samples of EBV-infected cell lysates (P3HR-1) were tested with human whole antiserum from positive humans (Pearson, et al., Virology, 160:151-161, 1987). A comparison was made between EA serology by IFA, using the EA-D 50.1 peptide antisera, and ELISA serology using 50.1 peptide (see Example 2).

[2] = system: antibodies to peptides 50.10 (EA-D) and 17.1 (EA-R) in sequential sera; assay: IgG ELISA on sequential sera of a patient with acute infectious mononucleosis; assay type: binding, human; conditions: sera at 1.20 dilution, (+) >0.25
Text: The early antigen D-R transition was followed in a patient during a course of acute infectious mononucleosis. Antibodies to peptides 50.10 (EA-D) and 17.1 (EA-R) were detected by ELISAs on specimens collected over a six month duration. […] Therefore, the peptides of the invention are useful for monitoring the course of EBV-associated disease in a patient.

[3] = 32 IM sera, values >0.5 positive (O.D. 420 nm)

“ETFTETWNRFITHTE [p17.1, synthetic peptide from 17 Kd early antigen (EA-R) region of EBV]” was tested, and the “% Positive” value [1, 3] was 38%, the “IM sera positive / tested” value [1, 3] was 12/32 and the “ELISA result, peptides with and without extensions” value ([1]; sample no. 2241) was 0.282. The “ELISA result, peptides with and without extensions” value ([1]; sample no. 12498) was 0.637, the “ELISA result, peptides with and without extensions” value ([1]; sample no. 12836) was 0.692 and the SCORE ([1]; IM serum sample no. 2241) was “− (Values >0.5 were considered positive (O.D. readings at 420 nm).)”. The SCORE ([1]; IM serum sample no. 11984) was “+ (Values >0.5 were considered positive (O.D. readings at 420 nm).)”, the O.D. ([1]; IM serum sample no. 11984) was 0.542 and the SCORE ([1]; IM serum sample no. 12005) was “+ (Values >0.5 were considered positive (O.D. readings at 420 nm).)”. For the same sequence, the O.D. ([1]; IM serum sample no. 12005) was 0.981, the SCORE ([1]; IM serum sample no. 12288) was “+ (Values >0.5 were considered positive (O.D. readings at 420 nm).)” and the O.D. ([1]; IM serum sample no. 12288) was 0.700. The SCORE ([1]; IM serum sample no. 12407) was “+ (Values >0.5 were considered positive (O.D. readings at 420 nm).)”, the O.D. ([1]; IM serum sample no. 12407) was 0.787 and the SCORE ([1]; IM serum sample no. 12409) was “+ (Values >0.5 were considered positive (O.D. readings at 420 nm).)”. The O.D. ([1]; IM serum sample no. 12409) was 0.592, the SCORE ([1]; IM serum sample no. 12418) was “− (Values >0.5 were considered positive (O.D. readings at 420 nm).)” and the O.D. ([1]; IM serum sample no. 12418) was 0.463. The SCORE ([1]; IM serum sample no. 12498) was “+ (Values >0.5 were considered positive (O.D. readings at 420 nm).)”, the SCORE ([1]; IM serum sample no. 12502) was “+ (Values >0.5 were considered positive (O.D. readings at 420 nm).)” and the O.D. ([1]; IM serum sample no. 12502) was 0.924. The SCORE ([1]; IM serum sample no. 12587) was “+ (Values >0.5 were considered positive (O.D. readings at 420 nm).)”, the O.D. ([1]; IM serum sample no. 12587) was 0.571 and the SCORE ([1]; IM serum sample no. 12600) was “− (Values >0.5 were considered positive (O.D. readings at 420 nm).)”. For the same sequence, the SCORE ([1]; IM serum sample no. 12611) was “− (Values >0.5 were considered positive (O.D. readings at 420 nm).)”, the O.D. ([1]; IM serum sample no. 12611) was 0.259 and the SCORE ([1]; IM serum sample no. 12801) was “+ (Values >0.5 were considered positive (O.D. readings at 420 nm).)”. For the same sequence, the O.D. ([1]; IM serum sample no. 12801) was 0.601, the SCORE ([1]; IM serum sample no. 12828) was “− (Values >0.5 were considered positive (O.D. readings at 420 nm).)” and the O.D. ([1]; IM serum sample no. 12828) was 0.375. The SCORE ([1]; IM serum sample no. 12829) was “− (Values >0.5 were considered positive (O.D. readings at 420 nm).)”, the O.D. ([1]; IM serum sample no. 12829) was 0.257 and the SCORE ([1]; IM serum sample no. 12836) was “+ (Values >0.5 were considered positive (O.D. readings at 420 nm).)”. The SCORE ([1]; IM serum sample no. 12837) was “+ (Values >0.5 were considered positive (O.D. readings at 420 nm).)”, the O.D. ([1]; IM serum sample no. 12837) was 0.523 and the SCORE ([1]; IM serum sample no. 12840) was “− (Values >0.5 were considered positive (O.D. readings at 420 nm).)”. For the same sequence, the O.D. ([1]; IM serum sample no. 12840) was 0.488, the SCORE ([1]; IM serum sample no. 12888) was “− (Values >0.5 were considered positive (O.D. readings at 420 nm).)” and the O.D. ([1]; IM serum sample no. 12888) was 0.423. The SCORE ([1]; IM serum sample no. 12889) was “+ (Values >0.5 were considered positive (O.D. readings at 420 nm).)”, the O.D. ([1]; IM serum sample no. 12889) was 0.574 and the SCORE ([1]; IM serum sample no. 12892) was “− (Values >0.5 were considered positive (O.D. readings at 420 nm).)”. The O.D. ([1]; IM serum sample no. 12892) was 0.430, the SCORE ([1]; IM serum sample no. 12893) was “+ (Values >0.5 were considered positive (O.D. readings at 420 nm).)” and the O.D. ([1]; IM serum sample no. 12893) was 0.592. The SCORE ([1]; IM serum sample no. 12899) was “+ (Values >0.5 were considered positive (O.D. readings at 420 nm).)”, the O.D. ([1]; IM serum sample no. 12899) was 0.825 and the SCORE ([1]; IM serum sample no. 12900) was “− (Values >0.5 were considered positive (O.D. readings at 420 nm).)”. The O.D. ([1]; IM serum sample no. 12900) was 0.264, the SCORE ([1]; IM serum sample no. 13075) was “− (Values >0.5 were considered positive (O.D. readings at 420 nm).)” and the O.D. ([1]; IM serum sample no. 13075) was 0.154. The SCORE ([1]; IM serum sample no. 13419) was “+ (Values >0.5 were considered positive (O.D. readings at 420 nm).)”, the O.D. ([1]; IM serum sample no. 13419) was 0.655 and the SCORE ([1]; IM serum sample no. 13637) was “+ (Values >0.5 were considered positive (O.D. readings at 420 nm).)”. For the same sequence, the O.D. ([1]; IM serum sample no. 13637) was 0.719, the SCORE ([1]; IM serum sample no. 13769) was “+ (Values >0.5 were considered positive (O.D. readings at 420 nm).)” and the O.D. ([1]; IM serum sample no. 13769) was 0.757. For the same sequence, the SCORE ([1]; IM serum sample no. 13929) was “− (Values >0.5 were considered positive (O.D. readings at 420 nm).)”, the O.D. ([1]; IM serum sample no. 13929) was 0.332 and the SCORE ([1]; IM serum sample no. 14043) was “− (Values >0.5 were considered positive (O.D. readings at 420 nm).)”. The O.D. ([1]; IM serum sample no. 14043) was 0.095, the SCORE ([1]; IM serum sample no. 14128) was “− (Values >0.5 were considered positive (O.D. readings at 420 nm).)” and the O.D. ([1]; IM serum sample no. 14128) was 0.434. For the same sequence, the SCORE ([1]; IM serum sample no. 14131) was “− (Values >0.5 were considered positive (O.D. readings at 420 nm).)”, the O.D. ([1]; IM serum sample no. 14131) was 0.182 and the “IgG ELISA O.D. reading” value ([2]; serum no. 9817, May 26, 1988) was 0.158. The “IgG ELISA O.D. reading” value ([2]; serum no. 9820, May 31, 1988) was 0.106, the “IgG ELISA O.D. reading” value ([2]; serum no. 9829, Jun. 07, 1988) was 0.135 and the “IgG ELISA O.D. reading” value ([2]; serum no. 9941, Jun. 20, 1988) was 0.169. The “IgG ELISA O.D. reading” value ([2]; serum no. 9983, Jun. 27, 1988) was 0.645, the “IgG ELISA O.D. reading” value ([2]; serum no. 10064, Jul. 18, 1988) was 0.842 and the “IgG ELISA O.D. reading” value ([2]; serum no. 10237, Aug. 29, 1988) was 0.260. The “IgG ELISA O.D. reading” value ([2]; serum no. 10271, Sep. 20, 1988) was 0.231, the “IgG ELISA O.D. reading” value ([2]; serum no. 10488, Oct. 21, 1988) was 0.217 and the “IgG ELISA O.D. reading” value ([2]; serum no. 10546, Nov. 15, 1988) was 0.193.
